Experimental data: PMC5437670 (Journal of the American Chemical Society, 2017)

Tests used:
[1] = target: T1, Thermotoga maritima TmGH1 β-glucosidase (Thermotoga maritima, UniProt Q08638); experiment: Kinetic studies of reversible inhibition of TmGH1; type: biochemical; conditions: for inhibition of TmGH1 (in words): p-nitrophenyl β-D-glucopyranoside, Lineweaver–Burk method
T1 sequence (Q08638 1-446): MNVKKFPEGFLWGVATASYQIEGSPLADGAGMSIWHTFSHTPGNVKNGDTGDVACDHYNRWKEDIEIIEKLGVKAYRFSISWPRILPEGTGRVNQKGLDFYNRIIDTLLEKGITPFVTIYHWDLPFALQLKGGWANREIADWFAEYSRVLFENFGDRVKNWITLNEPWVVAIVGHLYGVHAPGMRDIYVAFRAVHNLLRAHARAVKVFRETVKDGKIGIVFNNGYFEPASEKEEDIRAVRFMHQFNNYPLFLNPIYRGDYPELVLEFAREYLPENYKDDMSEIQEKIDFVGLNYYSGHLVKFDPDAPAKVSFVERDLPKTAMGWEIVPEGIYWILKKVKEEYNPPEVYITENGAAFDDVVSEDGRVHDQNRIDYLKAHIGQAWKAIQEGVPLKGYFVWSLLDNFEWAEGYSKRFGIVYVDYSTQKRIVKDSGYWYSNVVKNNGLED

[2] = target: recombinant human GAA (Myozyme), lysosomal α-glucosidase (Homo sapiens, UniProt P10253); experiment: Enzyme activity assay, apparent IC50 on GAA; type: biochemical

inhibition of TmGH1 (in words) [1]	Ki [1] [µM]	IC50 [2] [µM]	inhibition of GAA (in words) ([2]; final concentrations up to 150 μM)	Compound
low micromolar	–	–	–	OC[C@@H]1[C@@H](O)[C@H](O)[C@@H](O)CN1CCCCCOCC12CC3CC(CC(C3)C1)C2 [AMP-DNM (MZ-21), reference compound]
micromolar inhibition	22.3	> 150	–	CCOC(=O)[C@@H]1[C@H]2[C@H](O)[C@@H](O)[C@H](O)[C@@H](CO)[C@@H]12 [Compound 3]
–	0.0082	> 150	No apparent inhibition	[N-]=[N+]=NCCCCNC(=O)[C@@H]1[C@H]2[C@H](O)[C@@H](O)[C@H](O)[C@@H](CO)[C@@H]12 [Compound 5]
low micromolar	2.5	–	–	OC[C@H]1NC[C@H](O)[C@@H](O)[C@@H]1O [DNJ, deoxynojirimycin, reference compound]
